According to patent US9265736B2, “Treatment of cardiovascular disease and thrombosis” (THE CLEVELAND CLINIC FOUNDATION, priority 2011, dated 2016):
“Also recorded” adds a separate entry of the source.

Assays:
[1] = test system: peritoneal macrophages; experiment: Macrophage cholesterol accumulation in mice on supplemented chow (Example 1); format: in vivo, C57BL/6J.Apoe−/− mice; conditions: normal chow supplemented with choline (1.0%), TMAO (0.12%) or DMB (1.0%) vs normal chow
Method: Male C57BL/6J.Apoe−/− mice (15 week old) were placed on normal chow (control) alone or supplemented in the presence of either choline (1.0%), TMAO (0.12%), or DMB (1.0%). Peritoneal macrophages were recovered from the indicated number of mice at 20 weeks of age and cellular cholesterol content was quantified by stable isotope dilution GC/MS, and normalized to DNA content. (b) Schematic illustration of overall pathway.
(§1) Experiments were conducted during development of embodiments of the present invention to examine the structural specificity of phaophatidylcholine metabolites in promoting a pro-atherogenic macrophage phenotype as monitored by endogenous foam cell formation. C57BL/6J.Apoe−/− mice at time of weaning were placed on either normal chow diet (control) or normal chow supplemented with either choline, TMAO or the choline analog DMB, where the quaternary amine nitrogen of choline is replaced with a carbon (SEE FIG. 2, right). Thus, DMB is structurally identical to choline except there is no C—N bond for potential cleavage and TMA formation by gut flora.

[2] = Plasma TMAO in mice on supplemented chow (Example 1); format: in vivo, C57BL/6J.Apoe−/− mice; conditions: normal chow supplemented with choline, TMAO or DMB vs normal chow
Method: as §1

[3] = test system: platelets; experiment: Ex vivo platelet aggregation triggered by ADP (Example 7); format: in vivo, mice
Method: In this example, mice were placed on either normal chow diet at time of weaning, or a high choline diet. After several weeks, whole blood was removed, and platelets isolated. The ability of a submaximal agonist of platelets, ADP, to trigger platelet aggregation was then determined. In parallel, plasma levels of TMAO were determined by established stable isotope dilution LC/MS/MS analyses. […] This is a clear signal of a pro-thrombotic phenotype in the mice on a high choline diet. In a similar study, the mice on the high choline were also placed on a cocktail of broad spectrum antibiotics (described above and in Wang et al., Nature 2011, April, 472(7341):57-63, incorporated by reference it its entirety for all purposes) to suppress intestinal microflora, and reduce plasma TMAO levels. […] Such drugs (e.g., DMB or antibiotics) are attractive since they should not induce excess bleeding (e.g., like commercial anti-thrombotic drugs like clopidogrel or Warfarin). That is, TMAO only accentuates platelet function, and reducing TMAO levels (like with DMB, antibiotic, or some other drug or approach, be it functional food, probiotic, or prebiotic) would decrease in vivo thrombosis, but not reduce below “normal” function, and thus not increase bleeding risk. […]

[4] = test system: ApoE−/− mice; experiment: Carotid artery in vivo thrombosis rate by vital microscopy, ApoE−/− mice; conditions: diet high in choline or supplemented with TMAO, 3 weeks
Method: In this example, carotid artery in vivo thrombosis rates were determined using vital microscopy on the indicated groups of mice in FIG. 13. Mice were on the indicated diets +/− ABS for 3 weeks.
These studies extend to in vivo studies what was seen before with ex vivo platelet aggregation studies from mice on the various indicated diets. […] A shorter time indicates faster platelet aggregation (enhanced in vivo thrombosis).

[5] = test system: wild-type mice; experiment: Carotid artery in vivo thrombosis rate by vital microscopy, wild-type mice
Method: This example repeats the study immediately above, excepts uses wild-type mice. The results are shown FIG. 14.
Carotid artery in vivo thrombosis rates were determined using vital microscopy on the indicated groups of mice shown in FIG. 15. Mice were on the indicated diets +/− ABS or DMB for 3 weeks.

[6] = test system: C57BL/6J.Apoe−/− male mice; experiment: Aortic root lesion / atherosclerotic plaque, oil red O staining (Example 2); format: in vivo
Text: C57BL/6J.Apoe−/− male mice at the time of weaning (4 weeks) were placed on chow diet supplemented with 1.3% choline, 1.3% DMB, both, or neither. Aortic root section was stained with oil red 0/hematoxin. The red oil staining area inside the aorta indicates lesion plaque (SEE FIGS. 3 and 4).

[7] = Plasma lipoprotein profile (Example 3); format: in vivo, mice; conditions: 1.3% DMB added to mouse diet
Method: Experiments were conducted during development of embodiments of the present invention to compare plasma levels of (1) cholesterol, (2) triglyceride, low density lipoprotein-cholesterol, and HDL cholesterol in mice fed chow, or chow supplemented with 1.3% choline, 1.3% DMB, or both (SEE FIG. 5).

[8] = test system: Peritoneal macrophages; experiment: Cholesterol accumulation and foam cell formation, oil red O staining of peritoneal macrophages (Example 4); format: in vivo, C57BL/6J.Apoe−/− male mice; conditions: chow with 1.3% choline and 1.3% DMB
Method: Experiments were conducted during development of embodiments of the present invention to examine the effect of addition of DMB on cholesterol accumulation and foam cell formation. C57BL/6J.Apoe−/− male mice at the time of weaning (4 weeks) were placed on chow diet supplemented with 1.3% choline, 1.3% DMB, both, or neither. Peritoneal macrophages were collected, fixed in 4% paraformaldehyde and stained with oil red 0/hematoxin. Addition of DMB reversed the high choline diet induced cholesterol accumulation and foam cell formation (SEE FIG. 6).

[9] = test system: peritoneal mouse macrophages; experiment: Total cholesterol in peritoneal macrophages by stable isotope dilution LC/MS/MS (Example 5); format: in vivo, C57BL/6J.Apoe−/− male mice; conditions: chow with 1.3% choline and 1.3% DMB
Method: Experiments were conducted during development of embodiments of the present invention to determine the effect of DMB on total cholesterol level in peritoneal mouse macrophages (SEE FIG. 7). C57BL/6J.Apoe−/− male mice at the time of weaning (4 weeks) were placed on chow diet supplemented with 1.3% choline, 1.3% DMB, both, or neither. The total cholesterol of cells was quantified by stable isotope dilution LC/MS/MS. Cells number was quantified by protein content in cell lysates.

[10] = test system: intestinal microflora; experiment: Intestinal microflora-catalyzed generation of trimethylamine from choline, cecum homogenate (Example 6); format: biochemical; conditions: D9-choline substrate, mouse cecum homogenate
Method: Experiments were conducted during development of embodiments of the present invention to examine the effect of DMB on intestinal microflora-catalyzed generation of trimethylamine from choline. Mouse celum was homogenized as a source of intestinal microflora. D9-choline was used as a substrate and the generation of […] was quantificed by stable isotope dilution LC/MS/MS.

[11] = Plasma TMA and TMAO by stable isotope dilution LC/MS/MS in mice on diets (Example 7); format: in vivo
Method: Six week old female mice were placed on the indicated diets +/− shown in FIG. 9, including Chow, CHOW+ antibiotics (ABS; which was 0.5 g/L vancomycin, 1 g/L neomycin sulfate, 1 g/L metronidazole, and 1 g/L ampicillin), TMAO, CH (chow supplemented with 1.0% wt/wt choline), CH and ABS, and CH+DMB. Mice were placed on these diets at 6 weeks of age and maintained on the diets for 3 weeks. Plasma was then recovered and both TMA and TMAO were determined by stable isotope dilution LC/MS/MS. Note that a diet rich in choline (similar to a Western diet) leads to increases in plasma TMA and TMAO levels.
In this example, mice were placed on either normal chow diet at time of weaning, or a high choline diet. After several weeks, whole blood was removed, and platelets isolated. The ability of a submaximal agonist of platelets, ADP, to trigger platelet aggregation was then determined. In parallel, plasma levels of TMAO were determined by established stable isotope dilution LC/MS/MS analyses. […] This is a clear signal of a pro-thrombotic phenotype in the mice on a high choline diet. In a similar study, the mice on the high choline were also placed on a cocktail of broad spectrum antibiotics (described above and in Wang et al., Nature 2011, April, 472(7341):57-63, incorporated by reference it its entirety for all purposes) to suppress intestinal microflora, and reduce plasma TMAO levels. […] Such drugs (e.g., DMB or antibiotics) are attractive since they should not induce excess bleeding (e.g., like commercial anti-thrombotic drugs like clopidogrel or Warfarin). That is, TMAO only accentuates platelet function, and reducing TMAO levels (like with DMB, antibiotic, or some other drug or approach, be it functional food, probiotic, or prebiotic) would decrease in vivo thrombosis, but not reduce below “normal” function, and thus not increase bleeding risk.

[12] = female mice, diets for 3 weeks, ABS or DMB added (high choline diet)

| Structure (SMILES) | macrophage cholesterol content [1] | plasma levels of TMAO [2] | platelet aggregation responses to ADP ([3]; diet supplemented with choline or TMAO vs normal chow) | in vivo thrombosis rates (time to cessation of blood flow in the carotid artery) [4] | in vivo thrombosis rates ([5]; wild-type mice, absence of dyslipidemia) | reduction of aortic plaque formation ([6]; 1.3% DMB added to normal chow diet, from weaning (4 weeks)) | increases in atherosclerotic plaque induced by the high choline diet ([6]; chow supplemented with 1.3% choline and 1.3% DMB) | plasma HDL cholesterol [7] | plasma low density lipoprotein-cholesterol [7] | plasma total cholesterol [7] | plasma triglyceride [7] | high choline diet induced cholesterol accumulation and foam cell formation [8] | high choline diet induced increase in macrophage cholesterol content [9] | gut flora-mediated catabolism of choline to TMA [10] | diet induced TMAO levels ([11]; WT thrombosis study, high choline diet plus ABS or DMB, 3 weeks) | plasma TMA formation [11, 12] | plasma TMAO formation [11, 12] | plasma TMAO formation ([11]; platelet study, high choline diet plus antibiotics or DMB) | choline diet induced platelet hyperresponsiveness (aggregation) ([3]; high choline diet plus antibiotics or DMB) | change in in vivo thrombosis rates seen on a high choline diet ([5]; WT mice, high choline diet plus ABS or DMB, 3 weeks) |
| --- | --- | --- | --- | --- | --- | --- | --- | --- | --- | --- | --- | --- | --- | --- | --- | --- | --- | --- | --- | --- |
| C[N+](C)(C)[O-] [TMAO, trimethylamine N-oxide, reference compound] | increased | elevated | promotes enhanced platelet aggregation | promotes accelerated in vivo thrombosis rates | enhances in vivo thrombosis rates |  |  |  |  |  |  |  |  |  |  |  |  |  |  |  |
| CC(C)(C)CCO [DMB, 3,3-dimethyl-1-butanol] | no increased accumulation | no TMAO increase |  |  |  | ~90% | blocks the diet-induced enhanced atherosclerosis | increase | significant reductions | significant reductions | significant reductions | reversed | blocked | markedly inhibited | block TMAO levels | inhibits | inhibits | inhibits TMAO formation | markedly reduces platelet hyperresponsiveness; also recorded: blocks platelet hyper-responsiveness | block the reduction in in vivo thrombosis rates seen on a high choline diet |
